In general, IC50 refers to the concentration that inhibits the measured activity by half. The melting point is the temperature of the solid-liquid transition.

The target of data set [1] is T1, c-Met (cytoplasmic domain) (Homo sapiens, UniProt P08581).
T1 construct: Reactions were initiated with 30 ng/mL c-Met (cytoplasmic domain, Invitrogen Corporation #PV3143); purchased Invitrogen Corporation PV3143
Kind of data set: c-Met Kinase Assay (ELISA/TRF, PLC-γ substrate). The class given is biochemical. As to conditions: 3 μM ATP (Km level); read-out: c-Met Kinase Inhibition (IC50). The method in brief:
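c-Met cytoplasmic domain (30 ng/mL) phosphorylates plate-coated GST–PLC-γ for 15 min at 37 °C. Phosphotyrosine detected with Eu-labeled PT66 antibody by time-resolved fluorescence. IC50 from variable-slope sigmoidal fit of % inhibition vs log concentration.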
Background: An ELISA detects its analyte on a solid surface through an enzyme-linked reagent.

Data set [2] concerns the target baculovirus-expressed ALK (Homo sapiens, UniProt Q9UM73). Nature of the data set: ALK Kinase Assay (ELISA/TRF, PLC-γ substrate). Also: 1 µM ATP (Km level). Conditions: read-out: ALK Kinase Inhibition (IC50). Format: biochemical. Summed up: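 Plates coated with GST–PLC-γ fusion substrate (10 μg/mL in TBS); reaction started with 30 ng/ml ALK, run 15 minutes at 37° C. Phosphotyrosine detected by Eu-N1 PT66 antibody (1 hour, 37° C) and time-resolved fluorescence after enhancement. IC50 from sigmoidal variable-slope fit of percent inhibition versus log concentration.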

Structures can show the parent of a compound that is named as a salt.

T1 sequence (P08581 956-1390 limits assumed): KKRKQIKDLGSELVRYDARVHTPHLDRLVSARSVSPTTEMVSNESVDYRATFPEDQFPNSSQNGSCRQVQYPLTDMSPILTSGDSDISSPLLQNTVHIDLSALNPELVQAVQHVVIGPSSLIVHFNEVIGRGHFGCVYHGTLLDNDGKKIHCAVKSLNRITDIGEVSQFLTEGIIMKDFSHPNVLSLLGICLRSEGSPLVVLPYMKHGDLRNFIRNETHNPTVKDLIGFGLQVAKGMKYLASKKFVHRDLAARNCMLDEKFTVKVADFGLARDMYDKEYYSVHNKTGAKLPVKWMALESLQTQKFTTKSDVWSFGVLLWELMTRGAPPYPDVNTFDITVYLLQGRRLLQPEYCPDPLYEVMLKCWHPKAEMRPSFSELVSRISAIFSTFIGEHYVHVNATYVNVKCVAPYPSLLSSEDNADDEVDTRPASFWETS
baculovirus-expressed ALK, sequence (Q9UM73 19-1620): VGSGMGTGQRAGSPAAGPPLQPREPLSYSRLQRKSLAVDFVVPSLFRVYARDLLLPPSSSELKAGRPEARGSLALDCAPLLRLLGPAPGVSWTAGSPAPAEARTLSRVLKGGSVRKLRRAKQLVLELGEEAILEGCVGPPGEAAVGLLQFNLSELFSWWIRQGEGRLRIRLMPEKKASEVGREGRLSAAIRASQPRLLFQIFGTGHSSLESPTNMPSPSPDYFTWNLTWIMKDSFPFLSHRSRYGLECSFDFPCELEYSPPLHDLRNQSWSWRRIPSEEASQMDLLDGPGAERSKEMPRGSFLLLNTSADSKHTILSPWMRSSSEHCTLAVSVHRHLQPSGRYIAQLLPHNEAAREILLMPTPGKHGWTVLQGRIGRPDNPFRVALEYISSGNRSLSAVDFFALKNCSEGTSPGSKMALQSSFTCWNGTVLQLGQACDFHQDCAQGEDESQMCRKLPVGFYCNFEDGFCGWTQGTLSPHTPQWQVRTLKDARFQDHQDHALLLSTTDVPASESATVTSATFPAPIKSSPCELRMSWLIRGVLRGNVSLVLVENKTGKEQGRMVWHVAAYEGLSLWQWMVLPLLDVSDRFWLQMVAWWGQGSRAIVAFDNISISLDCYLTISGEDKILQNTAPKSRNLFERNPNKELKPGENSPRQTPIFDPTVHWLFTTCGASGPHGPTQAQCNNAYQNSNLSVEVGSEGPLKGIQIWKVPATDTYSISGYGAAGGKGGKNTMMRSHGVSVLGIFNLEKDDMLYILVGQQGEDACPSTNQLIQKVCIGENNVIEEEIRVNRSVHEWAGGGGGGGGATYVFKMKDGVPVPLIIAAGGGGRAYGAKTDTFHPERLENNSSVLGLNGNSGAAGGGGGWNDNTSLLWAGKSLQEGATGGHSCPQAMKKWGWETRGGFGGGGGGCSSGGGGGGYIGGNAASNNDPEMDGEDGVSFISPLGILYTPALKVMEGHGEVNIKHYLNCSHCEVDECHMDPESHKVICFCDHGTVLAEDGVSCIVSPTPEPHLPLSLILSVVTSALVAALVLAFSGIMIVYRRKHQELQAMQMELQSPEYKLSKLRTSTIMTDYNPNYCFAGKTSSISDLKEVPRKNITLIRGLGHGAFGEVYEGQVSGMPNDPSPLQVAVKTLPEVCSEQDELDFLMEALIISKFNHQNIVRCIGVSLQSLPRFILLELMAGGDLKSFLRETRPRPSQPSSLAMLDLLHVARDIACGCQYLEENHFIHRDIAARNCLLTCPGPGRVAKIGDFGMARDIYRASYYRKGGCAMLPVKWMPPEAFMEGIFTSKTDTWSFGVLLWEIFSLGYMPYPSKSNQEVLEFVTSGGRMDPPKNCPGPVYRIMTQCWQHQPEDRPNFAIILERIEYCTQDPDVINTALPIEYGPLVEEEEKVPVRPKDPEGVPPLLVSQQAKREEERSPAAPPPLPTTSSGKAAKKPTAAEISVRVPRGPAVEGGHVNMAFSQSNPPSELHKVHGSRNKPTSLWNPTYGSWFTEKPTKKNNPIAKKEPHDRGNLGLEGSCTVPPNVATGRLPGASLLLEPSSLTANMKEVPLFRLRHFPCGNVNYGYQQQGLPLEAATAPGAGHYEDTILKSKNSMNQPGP

`O=S(=O)(c1cc(F)ccc1F)N1CCNc2ncc(I)cc21` [Example 121, 1-(2,5-Difluorobenzenesulfonyl)-7-iodo-1,2,3,4-tetrahydropyrido[2,3-b]pyrazine] showed a melting point of 187 to 188 °C. In addition, the IC50 in data set [1] lay in the range of 10 to 100 µM. In addition, the IC50 in data set [2] lay within 1 to 10 µM.
On the same counts, the results for `CCOC(=O)c1ccc(-c2cnc3c(c2)N(Cc2ccccc2)CCN3)cc1` [Example 35, 4-(1-Benzyl-1,2,3,4-tetrahydropyrido[2,3-b]pyrazin-7-yl)benzoic acid ethyl ester] are 178 to 179 °C, greater than 100 µM and 1 to 10 µM.
Take `O=C1CNc2ncc(I)cc2N1Cc1c(F)ccc(F)c1Cl` [Example 3, 1-(2-Chloro-3,6-difluorobenzyl)-7-iodo-3,4-dihydro-1H-pyrido[2,3-b]pyrazin-2-one]: the melting point amounted to 237 °C. In addition, the IC50 in data set [1] is greater than 100 µM. Also, the IC50 in data set [2] lay within 10 to 100 µM.
For `O=C1CNc2ncc(-c3ccc(C(=O)N4CCC[C@H]4CN4CCCC4)cc3)cc2N1Cc1cc(F)c(F)cc1F` [Example 83, 7-[4-((S)-2-[(pyrrolidin-1-yl)methyl]pyrrolidine-1-carbonyl)phenyl]-1-(2,4,5-trifluorobenzyl)-3,4-dihydro-1H-pyrido[2,3-b]pyrazin-2-one] the same measures were 117 to 118 °C, 10 to 100 µM and 1 to 10 µM.
Consider `O=C(c1ccc(-c2cnc3c(c2)N(Cc2cc(Cl)ccc2C(F)(F)F)CCN3)cc1)N1CCCCC1` [Example 204], for which the melting point came to 216 °C. Moreover, the IC50 in data set [1] lay within 10 to 100 µM. For the same compound, in data set [2], the IC50 was in the range of 0.1 to 1 µM.
On the same counts, the results for `CC(=O)Nc1ccc(-c2cnc3c(c2)N(Cc2cc(Cl)ccc2C(F)(F)F)CCN3)cc1` [Example 304, N-(4-{1-[5-Chloro-2-(trifluoromethyl)benzyl]-1,2,3,4-tetrahydropyrido[2,3-b]pyrazin-7-yl}phenyl)acetamide] are 244 °C, greater than 100 µM and 1 to 10 µM.
`Fc1ccc(F)c(CN2CCNc3ncc(-c4cn[nH]c4)cc32)c1Cl` [Example 192, 1-(2-Chloro-3,6-difluorobenzyl)-7-(1H-pyrazol-4-yl)-1,2,3,4-tetrahydropyrido[2,3-b]pyrazine] gave a melting point of 272 °C. Moreover, the 50% inhibitory concentration (IC50) in data set [1] was in the range of 0.1 to 1 µM. Also, the IC50 in data set [2] was less than 0.1 µM.
On the same counts, the results for `CN(C)CC(=O)NCC#Cc1cnc2c(c1)N(Cc1c(Cl)cccc1Cl)CCN2` [Example 172, N-{3-[1-(2,6-Dichlorobenzyl)-1,2,3,4-tetrahydropyrido[2,3-b]pyrazin-7-yl]prop-2-ynyl}-2-dimethylamino-acetamide] are greater than 200 °C, 10 to 100 µM and 0.1 to 1 µM.
For the compound `CC(c1c(F)ccc(F)c1Cl)N1CCNc2ncc(I)cc21` (stereo not drawn) [Example 176, 1-[1-(2-Chloro-3,6-difluorophenyl)ethyl]-7-iodo-1,2,3,4-tetrahydropyrido[2,3-b]pyrazine], the melting point came out at 166 °C. Moreover, the IC50 in data set [1] is 10 to 100 µM. For the same compound, the IC50 in data set [2] fell in the range of 1 to 10 µM.
For `N#Cc1cnc2c(c1)N(Cc1cc(F)ccc1F)CCN2` [Example 77, 1-(2,5-Difluorobenzyl)-1,2,3,4-tetrahydropyrido[2,3-b]pyrazine-7-carbonitrile] the same measures were 204 to 206 °C, greater than 100 µM and 1 to 10 µM.
On the same counts, the results for `CC(C)(C)OC(=O)N1CC=C(c2cnc3c(c2)N(Cc2cc(Cl)ccc2Cl)CCN3)CC1` [Example 130, 4-[1-(2,5-Dichlorobenzyl)-1,2,3,4-tetrahydropyrido[2,3-b]pyrazin-7-yl]-3,6-dihydro-2H-pyridine-1-carboxylic acid tert-butyl ester] are 92 to 95 °C, 10 to 100 µM and 1 to 10 µM.
On the same counts, the results for `O=C1CNc2ncc(I)cc2N1Cc1cccc(F)c1C(F)(F)F` [Example 178, 1-[3-Fluoro-2-(trifluoromethyl)benzyl]-7-iodo-3,4-dihydro-1H-pyrido[2,3-b]pyrazin-2-one] are greater than 200 °C, 10 to 100 µM and greater than 100 µM.
As to `Clc1ccc(Cl)c(CN2CCNc3ncc(I)cc32)c1` [Example 158, 1-(2,5-Dichlorobenzyl)-7-iodo-1,2,3,4-tetrahydropyrido[2,3-b]pyrazine], the melting point was 169 °C. The IC50 in data set [1] was greater than 100 µM. In data set [2], the half-maximal inhibitory concentration (IC50) lay within 1 to 10 µM.
On the same counts, the results for `CC1(C)CN(Cc2cc(F)ccc2F)c2cc(I)cnc2N1` [Example 93, 1-(2,5-Difluorobenzyl)-7-iodo-3,3-dimethyl-1,2,3,4-tetrahydropyrido[2,3-b]pyrazine] are 168 to 169 °C, greater than 100 µM and greater than 100 µM.
On the same counts, the results for `CCOC(=O)c1cncc(-c2cnc3c(c2)N(Cc2cc(F)ccc2F)CCN3)c1` [Example 73, 5-[1-(2,5-Difluorobenzyl)-1,2,3,4-tetrahydropyrido[2,3-b]pyrazin-7-yl]-nicotinic acid ethyl ester] are 169 to 172 °C, 10 to 100 µM and 0.1 to 1 µM.
The compound `CC1(C)CN(Cc2cc(F)ccc2F)c2cc(-c3ccc(C(=O)N4CCC[C@H]4CN4CCCC4)cc3)cnc2N1` [Example 96, {4-[1-(2,5-Difluorobenzyl)-3,3-dimethyl-1,2,3,4-tetrahydropyrido[2,3-b]pyrazin-7-yl]phenyl}-((S)-2-((pyrrolidin-1-yl)methyl)pyrrolidin-1-yl)methanone] came in with a melting point of 74 to 77 °C. For the same compound, the IC50 in data set [1] was 10 to 100 µM. The 50% inhibitory concentration (IC50) in data set [2] lay within 1 to 10 µM.
Consider `O=C(O)c1cnc2c(c1)N(Cc1cc(F)ccc1F)CCN2` [Example 78, 1-(2,5-Difluorobenzyl)-1,2,3,4-tetrahydropyrido[2,3-b]pyrazine-7-carboxylic acid], for which the melting point is 231 °C (dec.). Further, the IC50 in data set [1] is greater than 100 µM. Further, the IC50 in data set [2] is greater than 100 µM.
In turn, `O=C1CNc2ncc(I)cc2N1` [Example 2, 7-Iodo-3,4-dihydro-1H-pyrido[2,3-b]pyrazin-2-one] gave a melting point of 81 °C. Further, the half-inhibitory concentration (IC50) in data set [1] is greater than 100 µM. Moreover, the IC50 in data set [2] was greater than 100 µM.
In the case of `NC(=O)c1ccc(-c2cnc3c(c2)N(Cc2ccccc2)C(=O)CN3)cc1` [Example 23, 4-(1-Benzyl-2-oxo-1,2,3,4-tetrahydropyrido[2,3-b]pyrazin-7-yl)benzamide], the melting point was greater than 200 °C. Moreover, the IC50 in data set [1] was in the range of 10 to 100 µM. For the same compound, the IC50 in data set [2] fell in the range of 1 to 10 µM.
The compound `CN1CCN(c2ccc(-c3cnc4c(c3)N(C(=O)Cc3cc(F)ccc3F)CCN4)cn2)CC1` [Example 113] returned a melting point greater than 300 °C. Moreover, the IC50 in data set [1] lay within 10 to 100 µM. Besides, the IC50 in data set [2] is 1 to 10 µM.
For `N#Cc1ccc(-c2cnc3c(c2)N(Cc2cc(F)ccc2F)CCN3)cn1` [Example 71, 5-[1-(2,5-Difluorobenzyl)-1,2,3,4-tetrahydropyrido[2,3-b]pyrazin-7-yl]-pyridine-2-carbonitrile] the same measures were 200 °C (dec.), greater than 100 µM and 0.1 to 1 µM.
On the same counts, the results for `Clc1ccc(Cl)c(CN2CCNc3ncc(-c4ccc(Cl)nc4)cc32)c1` [Example 165, 7-(6-Chloropyridin-3-yl)-1-(2,5-dichlorobenzyl)-1,2,3,4-tetrahydropyrido[2,3-b]pyrazine] are 205 °C, greater than 100 µM and 0.1 to 1 µM.
For `CCOC(=O)c1ccc(-c2cnc3c(c2)N(Cc2c(Cl)cccc2Cl)C(=O)CN3)cc1` [Example 139, 4-[1-(2,6-Dichlorobenzyl)-2-oxo-1,2,3,4-tetrahydropyrido[2,3-b]pyrazin-7-yl]benzoic acid ethyl ester] the same measures were 226 °C, 10 to 100 µM and 10 to 100 µM.
For `O=C(c1ccc(-c2cnc3c(c2)N(Cc2cc(F)ccc2F)C(=O)CN3)cc1)N1CCC(N2CCCC2)CC1` [Example 60, 1-(2,5-Difluorobenzyl)-7-[4-(4-(pyrrolidin-1-yl)piperidine-1-carbonyl)phenyl]-3,4-dihydro-1H-pyrido[2,3-b]pyrazin-2-one], the melting point was 186 °C (dec.). Also, in data set [1], the IC50 lay within 1 to 10 µM. The IC50 in data set [2] lay in the range of 0.1 to 1 µM.
`CN(C)CCCCNC(=O)c1ccc(-c2cnc3c(c2)N(Cc2c(Cl)cccc2Cl)C(=O)CN3)cc1` (as salt: trifluoroacetic acid salt) [Example 144, 4-[1-(2,6-Dichlorobenzyl)-2-oxo-1,2,3,4-tetrahydropyrido[2,3-b]pyrazin-7-yl]-N-(4-dimethylaminobutyl)benzamide, trifluoroacetic acid salt] came in with a melting point of 147 °C.
Same read-out and setting: in the case of `CN(C)CCCCCCNC(=O)c1ccc(-c2cnc3c(c2)N(Cc2c(Cl)cccc2Cl)C(=O)CN3)cc1` (as salt: trifluoroacetic acid salt) [Example 143, 4-[1-(2,6-Dichlorobenzyl)-2-oxo-1,2,3,4-tetrahydropyrido[2,3-b]pyrazin-7-yl]-N-(6-dimethylaminohexyl)benzamide, trifluoroacetic acid salt] it was 150 °C; in that of `O=C(NCCN1CCCC1)c1ccc(-c2cnc3c(c2)N(Cc2ccccc2)C(=O)CN3)cc1` (as salt: trifluoroacetic acid salt) [Example 12, 4-(1-Benzyl-2-oxo-1,2,3,4-tetrahydropyrido[2,3-b]pyrazin-7-yl)-N-(2-pyrrolidin-1-yl-ethyl)benzamide, trifluoroacetic acid salt], 107 °C.

Values taken from patent US7601716B2, “Pyridopyrazines and derivatives thereof as ALK and c-Met inhibitors” (Cephalon, Inc., priority 2006, dated 2009).
